Reference: ChEMBL document CHEMBL1123765, “Psychotropic agents: synthesis and antipsychotic activity of substituted beta-carbolines” (J Med Chem, 1987)

Assays:
Rattus norvegicus [1] = experiment: Antipsychotic activity was assessed by ability to block response of rats trained to avoid an electrical shock (inhibition of self-jump and/or discrete trial conditioned avoidance response(CAR) upon ip administration; value ranges from 15-33; format: functional
Rattus norvegicus [2] = experiment: Antipsychotic activity was assessed by ability to block response of rats trained to avoid an electrical shock (inhibition of self-jump and/or discrete trial conditioned avoidance response(CAR) upon po administration; value ranges from 8-17; format: functional
Rattus norvegicus [3] = experiment: Antipsychotic activity was assessed by ability to block response of rats trained to avoid an electrical shock (inhibition of self-jump and/or discrete trial conditioned avoidance response(CAR) upon ip administration; value ranges from 6.5-7.5; format: functional
D(2) dopamine receptor [4] = target: T1, D(2) dopamine receptor (Rattus norvegicus, UniProt P61169); experiment: In vitro binding affinity for Dopamine receptor D2 of rat striatum labeled with [3H]-spiperone was determined
T1 sequence (P61169 whole entry): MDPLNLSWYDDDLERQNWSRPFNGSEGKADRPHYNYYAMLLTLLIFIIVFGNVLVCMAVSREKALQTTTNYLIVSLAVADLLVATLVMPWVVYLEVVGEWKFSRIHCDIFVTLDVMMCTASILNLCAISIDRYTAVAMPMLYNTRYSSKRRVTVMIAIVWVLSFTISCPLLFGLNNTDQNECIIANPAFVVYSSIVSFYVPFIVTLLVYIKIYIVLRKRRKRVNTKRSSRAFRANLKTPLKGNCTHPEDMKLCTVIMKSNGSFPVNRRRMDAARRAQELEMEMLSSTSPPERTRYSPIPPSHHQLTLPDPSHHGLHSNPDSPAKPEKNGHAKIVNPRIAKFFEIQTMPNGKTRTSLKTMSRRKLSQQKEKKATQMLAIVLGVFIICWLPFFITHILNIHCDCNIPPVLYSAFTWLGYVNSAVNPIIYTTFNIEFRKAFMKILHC

Rattus norvegicus [5] = experiment: Antipsychotic activity was assessed by ability to block response of rats trained to avoid an electrical shock (inhibition of self-jump and/or discrete trial conditioned avoidance response(CAR) upon ip administration; value ranges from 19-78; format: functional
Rattus norvegicus [6] = experiment: Antipsychotic activity was assessed by ability to block response of rats trained to avoid an electrical shock (inhibition of self-jump and/or discrete trial conditioned avoidance response(CAR) upon ip administration.; format: functional
[7] = target: D(2) dopamine receptor (Rattus norvegicus) (UniProt P61169); experiment: In vitro binding affinity for Dopamine receptor D2 of rat nucleus accumbens labeled with [3H]spiperone was determined at 10 uM concentration
Chain of D(2) dopamine receptor (Rattus norvegicus) (P61169 whole entry): as above

Rattus norvegicus [8] = experiment: Antipsychotic activity was assessed by ability to block response of rats trained to avoid an electrical shock (inhibition of self-jump and/or discrete trial conditioned avoidance response(CAR) upon ip administration; format: functional
Rattus norvegicus [9] = experiment: Antipsychotic activity was assessed by ability to block response of rats trained to avoid an electrical shock (inhibition of self-jump and/or discrete trial conditioned avoidance response(CAR) upon po administration; value ranges from 30-33; format: functional
Rattus norvegicus [10] = experiment: Antipsychotic activity was assessed by ability to block response of rats trained to avoid an electrical shock (inhibition of self-jump and/or discrete trial conditioned avoidance response(CAR) upon ip administration; value ranges from 9-24; format: functional
Rattus norvegicus [11] = experiment: Antipsychotic activity was assessed by ability to block response of rats trained to avoid an electrical shock (inhibition of self-jump and/or discrete trial conditioned avoidance response(CAR) upon ip administration; value ranges from 33-37; format: functional
[12] = target: D(2) dopamine receptor (Rattus norvegicus) (UniProt P61169); experiment: In vitro binding affinity for Dopamine receptor D2 of rat nucleus accumbens labeled with [3H]spiperone was determined at 1 uM concentration
Rattus norvegicus [13] = experiment: Antipsychotic activity was assessed by ability to block response of rats trained to avoid an electrical shock (inhibition of self-jump and/or discrete trial conditioned avoidance response(CAR) upon po administration; value ranges from 0.1-3.5; format: functional
Rattus norvegicus [14] = experiment: Antipsychotic activity was assessed by ability to block response of rats trained to avoid an electrical shock (inhibition of self-jump and/or discrete trial conditioned avoidance response(CAR) upon ip administration; value ranges from 0.12-0.33; format: functional
Rattus norvegicus [15] = experiment: Antipsychotic activity was assessed by ability to block response of rats trained to avoid an electrical shock (inhibition of self-jump and/or discrete trial conditioned avoidance response(CAR) upon po administration; value ranges from 2-3; format: functional
Rattus norvegicus [16] = experiment: Antipsychotic activity was assessed by ability to block response of rats trained to avoid an electrical shock (inhibition of self-jump and/or discrete trial conditioned avoidance response(CAR) upon ip administration; value ranges from 2-7; format: functional
Rattus norvegicus [17] = experiment: Antipsychotic activity was assessed by ability to block response of rats trained to avoid an electrical shock (inhibition of self-jump and/or discrete trial conditioned avoidance response(CAR) upon ip administration; value ranges from 30-62; format: functional
D(2) dopamine receptor [18] = target: T1, D(2) dopamine receptor; experiment: In vitro binding affinity for Dopamine receptor D2 of rat nucleus accumbens labeled with [3H]spiperone was determined at 10 uM concentration.
[19] = target: D(2) dopamine receptor (Rattus norvegicus) (UniProt P61169); experiment: In vitro binding affinity for Dopamine receptor D2 of rat striatum labeled with [3H]spiperone was determined at 10 uM concentration; format: tissue-based
Rattus norvegicus [20] = experiment: Antipsychotic activity was assessed by ability to block response of rats trained to avoid an electrical shock (inhibition of self-jump and/or discrete trial conditioned avoidance response(CAR) upon ip administration; value ranges from 7-18; format: functional
Rattus norvegicus [21] = experiment: Antipsychotic activity was assessed by ability to block response of rats trained to avoid an electrical shock (inhibition of self-jump and/or discrete trial conditioned avoidance response(CAR) upon ip administration; value ranges from 15-22; format: functional
[22] = target: D(2) dopamine receptor (Rattus norvegicus) (UniProt P61169); experiment: In vitro binding affinity for Dopamine receptor D2 of rat nucleus accumbens labeled with [3H]-spiperone was determined at 1 uM concentration
Rattus norvegicus [23] = experiment: Antipsychotic activity was assessed by ability to block response of rats trained to avoid an electrical shock (inhibition of self-jump and/or discrete trial conditioned avoidance response (CAR) upon ip administration.* >40 indicates insignificant aactivity; format: functional
Rattus norvegicus [24] = experiment: Antipsychotic activity was assessed by ability to block response of rats trained to avoid an electrical shock (inhibition of self-jump and/or discrete trial conditioned avoidance response(CAR) upon ip administration; value ranges from 14-49; format: functional
[25] = target: D(2) dopamine receptor (Rattus norvegicus) (UniProt P61169); experiment: In vitro binding affinity for Dopamine receptor D2 of rat striatum labeled with [3H]-spiperone was determined at 10 uM concentration; format: tissue-based

Structure (SMILES)	AB50 (Rattus norvegicus [8]) [mg/kg]	inhibition [12] [%]	further results
c1cncc(CCCN2CCc3c([nH]c4ccccc34)C2)c1	–	–	AB50 (Rattus norvegicus [1]): 21 mg/kg
CN1CCN(C2=Nc3cc(Cl)ccc3Nc3ccccc32)CC1 [CLOZAPINE]	–	–	AB50 (Rattus norvegicus [2]): 11 mg/kg; AB50 (Rattus norvegicus [3]): 7 mg/kg
c1ccc2nc(CCCCN3CCc4c([nH]c5ccccc45)C3)ccc2c1	–	–	Ki (D(2) dopamine receptor [4]): 139 nM; AB50 (Rattus norvegicus [5]): 31 mg/kg
c1ccc2c3c([nH]c2c1)CN(CCCc1ccncc1)CC3	–	–	AB50 (Rattus norvegicus [6]): 40 mg/kg
c1ccc2c(c1)c1c(n2CCCN2CCCCC2)CN(CCCc2ccncc2)CC1	>40	–	inhibition [7]: 22%
OC1(c2ccc(Cl)cc2)CCN(CCCn2c3c(c4ccccc42)CCN(CCc2ccccn2)C3)CC1	>40	–	–
c1ccc2c3c([nH]c2c1)CN(CCCCc1ccncc1)CC3	–	–	Ki (D(2) dopamine receptor [4]): 525 nM; AB50 (Rattus norvegicus [9]): 31 mg/kg; AB50 (Rattus norvegicus [10]): 14 mg/kg
c1cnc(N2CCN(CCCN3CCc4c([nH]c5ccccc45)C3)CC2)nc1	–	–	AB50 (Rattus norvegicus [11]): 35 mg/kg
O=C(c1nccc2ccccc12)N1CCc2c([nH]c3ccccc23)C1	>40	6	–
COc1cccc(OC)c1CN1CCc2c([nH]c3ccccc23)C1	–	15	inhibition [7]: 27%
O=C(CCCN1CCC(O)(c2ccc(Cl)cc2)CC1)c1ccc(F)cc1 [HALOPERIDOL]	–	–	AB50 (Rattus norvegicus [13]): 0.2 mg/kg; AB50 (Rattus norvegicus [14]): 0.2 mg/kg
CN(C)CCCN1c2ccccc2Sc2ccc(Cl)cc21 [CHLORPROMAZINE]	–	–	AB50 (Rattus norvegicus [15]): 3 mg/kg; AB50 (Rattus norvegicus [16]): 4 mg/kg
c1ccc2c3c([nH]c2c1)CN(CCc1cnccn1)CC3	–	13	–
c1coc(CN2CCc3c([nH]c4ccccc34)C2)c1	–	7	–
Clc1cccc(N2CCN(CCCn3c4c(c5ccccc53)CCN(CCCc3cccnc3)C4)CC2)c1	>40	–	–
Cn1c(CN2CCc3c([nH]c4ccccc34)C2)nc2ccccc21	–	6	–
c1ccc2c(N3CCc4c([nH]c5ccccc45)C3)ccnc2c1	>40	7	–
O=C(CCCn1c2c(c3ccccc31)CCN(CCc1ccccn1)C2)c1ccc(F)cc1	>40	–	–
C[C@@H]1CN(CCCn2c3ccccc3c3ccccc32)C[C@H](C)N1 [RIMCAZOLE]	–	–	AB50 (Rattus norvegicus [17]): 39 mg/kg
Clc1cccc(N2CCN(CCCN3CCc4c([nH]c5ccccc45)C3)CC2)c1	>40	–	–
Fc1ccc2[nH]c3c(c2c1)CCN(CCCCc1ccncc1)C3	>40	–	Ki (D(2) dopamine receptor [18]): 720 nM
c1ccc2c3c([nH]c2c1)CN(Cc1ccncc1)CC3	–	13	inhibition [19]: 27%
Clc1ccc2[nH]c3c(c2c1)CCN(CCCCc1ccncc1)C3	>40	51	–
c1ccc2nc(CCN3CCc4c([nH]c5ccccc45)C3)ccc2c1	–	–	Ki (D(2) dopamine receptor [4]): 211 nM; AB50 (Rattus norvegicus [20]): 10 mg/kg

Structure (SMILES)	AB50 (Rattus norvegicus [8]) [mg/kg]	inhibition [12] [%]	further results
Fc1ccc(C(CCCN2CCc3c([nH]c4ccccc34)C2)c2ccc(F)cc2)cc1	>40	–	–
c1ccc2c(CCCCN3CCc4c([nH]c5ccccc45)C3)ccnc2c1	–	–	AB50 (Rattus norvegicus [21]): 18 mg/kg
FC(F)(F)c1ccc(CN2CCN(CCCN3CCc4c([nH]c5ccccc45)C3)CC2)cc1	>40	–	–
CN(C)CCCn1c2c(c3ccccc31)CCN(CCCc1ccncc1)C2	>40	0	–
CN(C)CCCn1c2c(c3ccccc31)CCN(CCCc1cccnc1)C2	>40	–	inhibition [7]: 17%
Clc1ccc2[nH]c3c(c2c1)CCN(CCc1ccc2ccccc2n1)C3	>40	–	–
Clc1cccc(N2CCN(CCCn3c4c(c5ccccc53)CCN(CCc3ccccn3)C4)CC2)c1	>40	–	–
Fc1ccc2[nH]c3c(c2c1)CCN(CCCCc1ccnc2ccccc12)C3	>40	–	–
COc1ccc2[nH]c3c(c2c1)CCN(CCc1ccncc1)C3	–	–	inhibition [22]: 53%
Fc1ccc2[nH]c3c(c2c1)CCN(CCc1ccc2ccccc2n1)C3	40	–	–
c1ccc(CCN2CCc3c(n(CCCN4CCCCC4)c4ccccc34)C2)nc1	>40	–	inhibition [7]: 9%
Clc1ccc2[nH]c3c(c2c1)CCN(CCc1ccncc1)C3	–	–	AB50 (Rattus norvegicus [23]): >40 mg/kg
Fc1ccc2[nH]c3c(c2c1)CCN(CCc1ccccn1)C3	40	75	–
FC(F)(F)c1cccc(N2CCN(CCCN3CCc4c([nH]c5ccccc45)C3)CC2)c1	>40	–	–
c1ccc(CCN2CCc3c([nH]c4ccccc34)C2)nc1	–	38	AB50 (Rattus norvegicus [24]): 23 mg/kg
c1ccc2c(CN3CCc4c([nH]c5ccccc45)C3)ccnc2c1	>40	26	–
Fc1ccc(C(c2ccc(F)cc2)N2CCN(CCCN3CCc4c([nH]c5ccccc45)C3)CC2)cc1	>40	–	–
c1ccc2nc(CN3CCc4c([nH]c5ccccc45)C3)ccc2c1	48	7	inhibition [25]: 7%
CC1CN(CCCN2CCc3c([nH]c4ccccc34)C2)CC(C)N1 (configuration not stated)	>40	38	–
COc1ccc2[nH]c3c(c2c1)CCN(Cc1c(OC)cccc1OC)C3	–	15	inhibition [7]: 27%
c1cncc(CCCN2CCc3c(n(CCCN4CCCCC4)c4ccccc34)C2)c1	>40	–	inhibition [7]: 26%
COc1ccc2[nH]c3c(c2c1)CCN(CCc1ccccn1)C3	–	8	–
c1ccc(Cn2c3c(c4ccccc42)CCN(CCc2ccccn2)C3)cc1	>40	–	–
